Literature values, collected in patent publication US9925167B2, “Agents for the control of parasites on animals” (Hansen-AB GmbH, priority 2011, dated 2018).

Columns and labels:
[1] = test system: paresthesias; conditions: humans
[2] = test system: hepatotoxic damage; conditions: orally administered; Aldana et al. 2001
[3] = test system: fenvalerate-induced skin sensitizations; conditions: guinea pigs, Malley et al. 1985

| Compound | Effect on paresthesias triggered by cyano-pyrethroid active substances such as fenvalerate ([1]; Flannigan et al. 1985) | Effect of topical application in paresthesias after pyrethroid-induced damage ([1]; topical, Bradberry et al. 2005) | Effect on hepatotoxic damage after i.p. application of cypermethrin [2] | Effect of dermal pre-treatment on fenvalerate-induced skin sensitizations [3] |
| --- | --- | --- | --- | --- |
| CC(=O)Oc1c(C)c(C)c2c(c1C)CC[C@@](C)(CCC[C@H](C)CCC[C@H](C)CCCC(C)C)O2 [vitamin E acetate, Alpha-tocopheryl acetate] | positive effects | positive effect | positive effects |  |
| vitamin E |  |  |  | reduction |
